Read-outs that look alike come from different tables or passages of the source.
Key:
OR10a = system: OR10a; set-up: method as in earlier work; conditions: DoOR database value, ref DoOR, cited from earlier work
OR85b = system: OR85b; set-up: method as in earlier work; conditions: DoOR database value, ref DoOR, cited from earlier work
OR47a = system: OR47a; set-up: method as in earlier work; conditions: DoOR database value, ref DoOR, cited from earlier work
OR71a = system: OR71a; set-up: method as in earlier work; conditions: DoOR database value, ref DoOR, cited from earlier work
OR49b = system: OR49b; set-up: method as in earlier work; conditions: DoOR database value, ref DoOR, cited from earlier work
Drosophila OR85b = target: T1, Drosophila OR85b (Drosophila melanogaster, UniProt Q9VHQ7); assay: Calcium ion fluorescence (GCaMP6) assay, OR85b stable HEK293 cell line; assay type: cell-based; conditions: for OR85b response (VUAA1-normalized) at 1 μM / OR85b response (VUAA1-normalized) at 10 μM / OR85b response (VUAA1-normalized) at 100 μM / Average response: OR85b cell line; for Average response: VUAA1-normalized response, mean of biological replicates
T1 construct: expressed in transfected cells
T1 sequence (Q9VHQ7 1-390): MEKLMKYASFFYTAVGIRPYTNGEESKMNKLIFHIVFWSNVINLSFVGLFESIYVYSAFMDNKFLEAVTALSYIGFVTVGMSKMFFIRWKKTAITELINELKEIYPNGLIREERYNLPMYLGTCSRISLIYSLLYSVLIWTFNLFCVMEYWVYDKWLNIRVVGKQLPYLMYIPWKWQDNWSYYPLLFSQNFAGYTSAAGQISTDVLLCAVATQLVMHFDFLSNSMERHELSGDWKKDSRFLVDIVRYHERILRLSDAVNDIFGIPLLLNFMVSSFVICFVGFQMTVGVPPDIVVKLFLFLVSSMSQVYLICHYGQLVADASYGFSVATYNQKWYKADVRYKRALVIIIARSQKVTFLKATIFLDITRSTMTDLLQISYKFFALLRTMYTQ
T1 sequence (Q9VNB5 1-486 partner): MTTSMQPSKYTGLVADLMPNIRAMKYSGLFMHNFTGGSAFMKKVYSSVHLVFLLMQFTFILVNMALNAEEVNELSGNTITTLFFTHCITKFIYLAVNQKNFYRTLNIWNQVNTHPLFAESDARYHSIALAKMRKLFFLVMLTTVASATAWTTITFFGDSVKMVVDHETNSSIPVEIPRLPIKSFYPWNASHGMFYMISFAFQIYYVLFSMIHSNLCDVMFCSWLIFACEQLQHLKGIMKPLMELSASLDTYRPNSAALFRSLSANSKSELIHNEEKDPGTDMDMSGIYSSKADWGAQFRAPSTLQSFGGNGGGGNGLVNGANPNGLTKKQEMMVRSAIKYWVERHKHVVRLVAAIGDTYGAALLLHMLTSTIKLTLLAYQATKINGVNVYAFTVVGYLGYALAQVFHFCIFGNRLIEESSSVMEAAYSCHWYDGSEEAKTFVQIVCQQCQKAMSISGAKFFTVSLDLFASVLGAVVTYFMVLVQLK
How it was run: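 Responses are VUAA1-normalized ΔF: each VOC-evoked calcium signal, (FMAX−F0)/F0 over 30 s after injection, divided by the same line's mean 50 µM VUAA1 response. Cells were doxycycline-induced HEK293 with GCaMP6 and the cognate Drosophila OR, in HEPES buffer pH 7.3; ligands tested 0.01–100 μM.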

OR98a = system: OR98a; set-up: method as in earlier work; conditions: DoOR database value, ref DoOR, cited from earlier work
OR13a = system: OR13a; set-up: method as in earlier work; conditions: DoOR database value, ref DoOR, cited from earlier work
[1] = ligand concentration 1 (unit not given), threshold 0.05, below shown as 0
[2] = ligand concentration 10 (unit not given), threshold 0.05, below shown as 0
[3] = ligand concentration 100 (unit not given), threshold 0.05, below shown as 0
[4] = HEK293, read-out: OR85b response (VUAA1-normalized response)
[5] = concentration 1, normalized fluorescence change, values below 0.05 threshold given as 0
[6] = concentration 10, normalized fluorescence change, values below 0.05 threshold given as 0
[7] = concentration 100, normalized fluorescence change, values below 0.05 threshold given as 0
[8] = HEK293, read-out: OR85b Average response (VUAA1-normalized)

SMILES	OR10a DoOR response (OR10a; OR10a)	OR85b DoOR response (OR85b; OR85b)	OR47a DoOR response (OR47a; OR47a)	OR49b DoOR response (OR49b; OR49b)	OR85b response (VUAA1-normalized) at 1 μM (Drosophila OR85b; VOC concentration 1 μM)	OR85b response (VUAA1-normalized) at 10 μM (Drosophila OR85b; VOC concentration 10 μM)	OR85b response (VUAA1-normalized) at 100 μM (Drosophila OR85b; VOC concentration 100 μM)	Average response (Drosophila OR85b; cc. 1 µM)	Average response (Drosophila OR85b; cc. 10 µM)	Average response (Drosophila OR85b; cc. 100 µM)	DF norm AVERAGE OR85b (Drosophila OR85b; [1])	DF norm AVERAGE OR85b (Drosophila OR85b; [2])	DF norm AVERAGE OR85b (Drosophila OR85b; [3])	OR98a DoOR response (OR98a; OR98a)	OR13a DoOR response (OR13a; OR13a)	OR10a DoOR response (OR10a)	activation at 1 µM (Drosophila OR85b; [4])	activation at 10 µM (Drosophila OR85b; [4])	activation at 100 µM (Drosophila OR85b; [4])	OR13a DoOR response (OR13a)	also measured
CCCOC(C)=O [propyl acetate]	0.18	0.49	0.68	0.023	0.0538	0.00	0.00	0.0538	0.0361	0.00	0.05375	0	0	0.50	0.14						OR71a DoOR response (OR71a; OR71a): 0.04
C=CC(C)(O)CCC=C(C)C (stereo not drawn) [linalool]	0.001	0.16	0.04	0.016	0.00	0.00	0.06	0.045	0.00	0.06	0	0	0.06299	0.47	0.16						
Cc1ccc(O)cc1 [4-methylphenol]								0.00	0.04	0.00						0.24	0%	0%	0%	0.019	OR85b DoOR response (OR85b): 0.37; OR47a DoOR response (OR47a): -0.037; OR71a DoOR response (OR71a): 0.64; OR49b DoOR response (OR49b): 0.43; DF norm AVERAGE OR85b (Drosophila OR85b; [5]): 0; DF norm AVERAGE OR85b (Drosophila OR85b; [6]): 0; DF norm AVERAGE OR85b (Drosophila OR85b; [7]): 0; OR98a DoOR response (OR98a): 0.085
CCCCCOC(C)=O [pentyl acetate]	0.03	0.56	0.82	0.022	0.00	0.00	0.14	0.0185	0.04	0.14	0	0	0.1368	0.64	0.39						activation at 1 µM (Drosophila OR85b; [8]): 2%; activation at 10 µM (Drosophila OR85b; [8]): 4%; activation at 100 µM (Drosophila OR85b; [8]): 14%
CCCCOC(C)=O [butyl acetate]								0.00	0.00	0.00	0	0	0			0.27	0%	0%	0%	0.31	OR85b DoOR response (OR85b): 0.78; OR47a DoOR response (OR47a): 0.77; OR49b DoOR response (OR49b): 0.035; OR98a DoOR response (OR98a): 0.70
CCCCCC(=O)CC [3-octanone]								0.00	0.00	0.09							0%	0%	9%		OR71a DoOR response (OR71a): 0.016; DF norm AVERAGE OR85b (Drosophila OR85b; [5]): 0; DF norm AVERAGE OR85b (Drosophila OR85b; [6]): 0; DF norm AVERAGE OR85b (Drosophila OR85b; [7]): 0.08805
COC(=O)c1ccccc1 [methyl benzoate]	0.63	0.036	0.09	0.035	0.00	0.00	0.00	0.00	0.00	0.00	0	0	0	0.70							OR71a DoOR response (OR71a; OR71a): 0.28
C=C1CC/C=C(\C)CC[C@@H]2[C@@H]1CC2(C)C [(-)-trans-caryophyllene]								0.00	0.00	0.0238						-0.002	0%	0%	0%	0.0851	OR85b DoOR response (OR85b): 0.053; OR47a DoOR response (OR47a): -0.002; OR49b DoOR response (OR49b): 0.001; DF norm AVERAGE OR85b (Drosophila OR85b; [5]): 0; DF norm AVERAGE OR85b (Drosophila OR85b; [6]): 0; DF norm AVERAGE OR85b (Drosophila OR85b; [7]): 0; OR98a DoOR response (OR98a): -0.004
CCOC(=O)CC [ethyl propionate]								0.00	0.037	0.09	0	0	0.09327			0.064	0%	0%	9%	0.034	OR85b DoOR response (OR85b): 0.066; OR47a DoOR response (OR47a): 0.16; OR49b DoOR response (OR49b): 0.017; OR98a DoOR response (OR98a): 0.08
Cc1ccc(C(C)C)cc1 [p-cymene]	-0.003	-0.004	0.018	0.014	0.00	0.12	0.09	0.00	0.12	0.09	0	0.1172	0.09049	-0.012							OR71a DoOR response (OR71a; OR71a): 0.063
CC/C=C\CCO [Z-3-hexenol]	0.007	0.60	0.14	0.07	0.0533	0.00	0.00							0.44	0.37						
CC(C)=CCC/C(C)=C/CC/C(C)=C/CO [e,e-farnesol]								0.053	0.08	0.00	0.05296	0.07925	0			0.014				0.075	OR71a DoOR response (OR71a): 0.11; OR85b response (VUAA1-normalized response) (Drosophila OR85b; VOC concentration 1 μM): 0.053; OR85b response (VUAA1-normalized response) (Drosophila OR85b; VOC concentration 10 μM): 0.08; OR85b response (VUAA1-normalized response) (Drosophila OR85b; VOC concentration 100 μM): 0.00

From paper PMC10709440, “High-throughput ligand profile characterization in novel cell lines expressing seven heterologous insect olfactory receptors for the detection of volatile plant biomarkers” (Scientific Reports, 2023)
